{"source": "ChEMBL document CHEMBL4396875", "about": "“Hybridization of β-Adrenergic Agonists and Antagonists Confers G Protein Bias” (J Med Chem, 2019)", "assay_type_in_all_cases": "cell-based", "key": {"[1]": {"molecular_target": "Beta-1 adrenergic receptor (Mus musculus, UniProt P34971)", "sequence (P34971 whole entry)": "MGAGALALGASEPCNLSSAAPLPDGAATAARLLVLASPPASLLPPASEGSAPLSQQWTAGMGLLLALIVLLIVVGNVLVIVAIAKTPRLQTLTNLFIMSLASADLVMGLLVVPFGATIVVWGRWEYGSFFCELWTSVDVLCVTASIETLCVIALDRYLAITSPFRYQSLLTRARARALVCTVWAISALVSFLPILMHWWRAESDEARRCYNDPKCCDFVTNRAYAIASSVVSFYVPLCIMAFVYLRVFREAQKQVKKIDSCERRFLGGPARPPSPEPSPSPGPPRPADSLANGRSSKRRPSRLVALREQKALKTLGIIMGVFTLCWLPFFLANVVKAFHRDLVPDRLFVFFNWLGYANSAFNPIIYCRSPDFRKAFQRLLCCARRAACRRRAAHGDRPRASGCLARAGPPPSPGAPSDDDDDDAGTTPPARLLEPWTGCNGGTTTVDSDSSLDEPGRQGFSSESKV", "assay": "Displacement of [3H]-CGP-12177 from murine beta1-adrenergic receptor expressed in HEK293T cells after 60 mins by radioligand competition binding assay"}, "[2]": {"molecular_target": "T1, Beta-2 adrenergic receptor (Homo sapiens, UniProt P07550)", "T1 sequence (P07550 whole entry)": "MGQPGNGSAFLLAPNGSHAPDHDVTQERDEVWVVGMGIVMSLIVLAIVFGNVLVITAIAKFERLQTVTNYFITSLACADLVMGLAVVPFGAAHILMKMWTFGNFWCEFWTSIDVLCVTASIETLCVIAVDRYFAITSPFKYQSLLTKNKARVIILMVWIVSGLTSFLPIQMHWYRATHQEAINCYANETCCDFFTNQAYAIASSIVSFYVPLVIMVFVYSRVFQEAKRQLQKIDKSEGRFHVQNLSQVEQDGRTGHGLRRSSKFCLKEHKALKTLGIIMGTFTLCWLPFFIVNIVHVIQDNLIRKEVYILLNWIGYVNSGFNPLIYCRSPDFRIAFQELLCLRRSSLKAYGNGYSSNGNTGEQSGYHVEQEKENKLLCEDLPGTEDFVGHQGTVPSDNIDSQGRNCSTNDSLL", "assay": "Displacement of [3H]-CGP-12177 from human beta2-adrenergic receptor expressed in CHO cells after 60 mins by radioligand competition binding assay"}, "[3]": {"molecular_target": "T2, Beta-1 adrenergic receptor (Homo sapiens, UniProt P08588)", "T2 sequence (P08588 whole entry)": "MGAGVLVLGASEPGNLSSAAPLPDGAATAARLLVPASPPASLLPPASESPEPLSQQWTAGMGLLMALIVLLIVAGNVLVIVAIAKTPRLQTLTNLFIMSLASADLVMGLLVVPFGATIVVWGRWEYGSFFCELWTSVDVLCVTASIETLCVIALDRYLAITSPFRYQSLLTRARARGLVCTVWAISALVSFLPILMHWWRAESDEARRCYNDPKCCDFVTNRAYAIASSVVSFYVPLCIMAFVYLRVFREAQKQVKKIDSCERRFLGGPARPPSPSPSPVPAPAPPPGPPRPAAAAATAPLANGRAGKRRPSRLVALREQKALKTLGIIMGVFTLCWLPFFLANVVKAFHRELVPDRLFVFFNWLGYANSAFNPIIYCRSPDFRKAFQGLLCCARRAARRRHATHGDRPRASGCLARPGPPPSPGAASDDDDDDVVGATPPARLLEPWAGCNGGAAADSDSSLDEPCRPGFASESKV", "assay": "Agonist activity at beta1-adrenergic receptor (unknown origin) expressed in HEK293T cells harboring GFP/Rluc2-tagged beta-arrestin2 assessed as increase in beta-arrestin2 recruitment incubated for 5 mins in presence of GRK5 and coelenterazine 400a by BRET assay"}, "[4]": {"molecular_target": "T2, Beta-1 adrenergic receptor", "assay": "Agonist activity at beta1-adrenergic receptor (unknown origin) expressed in HEK293T cells harboring GFP/Rluc2-tagged beta-arrestin2 assessed as increase in beta-arrestin2 recruitment incubated for 5 mins in presence of GRK2 and coelenterazine 400a by BRET assay"}, "[5]": {"molecular_target": "T1, Beta-2 adrenergic receptor", "assay": "Agonist activity at beta2-adrenergic receptor (unknown origin) expressed in HEK293T cells harboring Rluc2-117-GalphaS/GFP10-Ggamma/Gbeta1 assessed as activation of GalphaS incubated for 5 mins in presence of coelenterazine 400a by BRET assay"}, "[6]": {"molecular_target": "T1, Beta-2 adrenergic receptor", "assay": "Agonist activity at beta2-adrenergic receptor (unknown origin) expressed in HEK293T cells harboring GFP/Rluc2-tagged beta-arrestin2 assessed as increase in beta-arrestin2 recruitment incubated for 5 mins in presence of GSK5 and coelenterazine 400a by BRET assay"}, "[7]": {"molecular_target": "T2, Beta-1 adrenergic receptor", "assay": "Agonist activity at beta1-adrenergic receptor (unknown origin) expressed in HEK293T cells harboring GFP/Rluc2-tagged beta-arrestin2 assessed as increase in beta-arrestin2 recruitment incubated for 5 mins in presence of coelenterazine 400a by BRET assay"}, "[8]": {"molecular_target": "T1, Beta-2 adrenergic receptor", "assay": "Agonist activity at beta2-adrenergic receptor (unknown origin) expressed in HEK293T cells harboring GFP/Rluc2-tagged beta-arrestin2 assessed as increase in beta-arrestin2 recruitment incubated for 5 mins in presence of coelenterazine 400a by BRET assay"}, "[9]": {"molecular_target": "T2, Beta-1 adrenergic receptor", "assay": "Agonist activity at beta1-adrenergic receptor (unknown origin) expressed in HEK293T cells harboring Rluc2-117-GalphaS/GFP10-Ggamma/Gbeta1 assessed as activation of GalphaS incubated for 5 mins in presence of coelenterazine 400a by BRET assay"}, "[10]": {"molecular_target": "T1, Beta-2 adrenergic receptor", "assay": "Agonist activity at beta2-adrenergic receptor (unknown origin) expressed in HEK293T cells harboring GFP/Rluc2-tagged beta-arrestin2 assessed as increase in beta-arrestin2 recruitment incubated for 5 mins in presence of GSK2 and coelenterazine 400a by BRET assay"}}}
{"smiles": "COc1ccccc1OCCNC[C@@H](O)COc1ccc(O)c(O)c1", "values": [{"measurement": "Ki", "setting": "[1]", "result": 7400, "unit": "nM"}, {"measurement": "Ki", "setting": "[2]", "result": 7900, "unit": "nM"}]}
{"smiles": "COc1cc(CCNC[C@H](O)c2ccc(O)c(O)c2)ccc1OCCCc1ccccc1", "values": [{"measurement": "EC50", "setting": "[3]", "result": 501, "unit": "nM"}, {"measurement": "EC50", "setting": "[4]", "result": 794, "unit": "nM"}, {"measurement": "EC50", "setting": "[5]", "result": 100, "unit": "nM"}, {"measurement": "EC50", "setting": "[6]", "result": 417, "unit": "nM"}, {"measurement": "EC50", "setting": "[7]", "result": 794, "unit": "nM"}, {"measurement": "EC50", "setting": "[8]", "result": 724, "unit": "nM"}, {"measurement": "EC50", "setting": "[9]; read-out: pEC50 (converted)", "result": 2000, "unit": "nM"}, {"measurement": "EC50", "setting": "[10]", "result": 501, "unit": "nM"}]}
{"smiles": "COc1cc(CCNC[C@H](O)COc2ccc(O)c(O)c2)ccc1OCCCc1ccccc1", "values": [{"measurement": "EC50", "setting": "[3]", "result": 7940, "unit": "nM"}, {"measurement": "EC50", "setting": "[4]", "result": 2510, "unit": "nM"}, {"measurement": "EC50", "setting": "[5]", "result": 12600, "unit": "nM"}, {"measurement": "EC50", "setting": "[6]", "result": 2000, "unit": "nM"}, {"measurement": "EC50", "setting": "[7]", "result": 10000, "unit": "nM"}, {"measurement": "Ki", "setting": "[1]", "result": 6.5, "unit": "nM"}, {"measurement": "EC50", "setting": "[9]; read-out: pEC50 (converted)", "result": 2510, "unit": "nM"}, {"measurement": "Ki", "setting": "[2]", "result": 7.2, "unit": "nM"}]}
{"smiles": "COc1ccccc1OCCNCCCOc1ccc(O)c(O)c1", "values": [{"measurement": "Ki", "setting": "[1]", "result": "> 10000", "unit": "nM"}, {"measurement": "Ki", "setting": "[2]", "result": 3800, "unit": "nM"}]}
{"smiles": "COc1cc(CCNCCCOc2ccc(O)c(O)c2)ccc1OCCCc1ccccc1", "values": [{"measurement": "Ki", "setting": "[1]", "result": 1200, "unit": "nM"}, {"measurement": "Ki", "setting": "[2]", "result": 700, "unit": "nM"}]}
{"smiles": "CC(C)NC[C@H](O)COc1ccc(O)c(O)c1", "values": [{"measurement": "EC50", "setting": "[3]", "result": 316, "unit": "nM"}, {"measurement": "EC50", "setting": "[4]", "result": 1000, "unit": "nM"}, {"measurement": "EC50", "setting": "[5]", "result": 794, "unit": "nM"}, {"measurement": "EC50", "setting": "[6]", "result": 251, "unit": "nM"}, {"measurement": "EC50", "setting": "[7]", "result": 631, "unit": "nM"}, {"measurement": "Ki", "setting": "[1]", "result": 14, "unit": "nM"}, {"measurement": "EC50", "setting": "[9]; read-out: pEC50 (converted)", "result": 631, "unit": "nM"}, {"measurement": "Ki", "setting": "[2]", "result": 12, "unit": "nM"}, {"measurement": "EC50", "setting": "[10]", "result": 316, "unit": "nM"}]}
{"smiles": "COc1ccccc1OCCNCCCOc1cccc2[nH]c3ccccc3c12", "values": [{"measurement": "Ki", "setting": "[1]", "result": 24, "unit": "nM"}, {"measurement": "Ki", "setting": "[2]", "result": 5.4, "unit": "nM"}]}
{"smiles": "COc1ccccc1OCCNC[C@H](O)Cc1ccc(O)c(O)c1", "values": [{"measurement": "Ki", "setting": "[1]", "result": "> 10000", "unit": "nM"}, {"measurement": "Ki", "setting": "[2]", "result": 5200, "unit": "nM"}]}
{"smiles": "CC(C)NC[C@@H](O)COc1ccc(O)c(O)c1", "values": [{"measurement": "Ki", "setting": "[1]", "result": 860, "unit": "nM"}, {"measurement": "Ki", "setting": "[2]", "result": 420, "unit": "nM"}]}
{"smiles": "COc1ccccc1OCCNC[C@H](O)c1ccc(O)c(O)c1", "values": [{"measurement": "EC50", "setting": "[3]", "result": 51.3, "unit": "nM"}, {"measurement": "EC50", "setting": "[4]", "result": 63.1, "unit": "nM"}, {"measurement": "EC50", "setting": "[5]", "result": 63.1, "unit": "nM"}, {"measurement": "EC50", "setting": "[6]", "result": 100, "unit": "nM"}, {"measurement": "EC50", "setting": "[7]", "result": 79.4, "unit": "nM"}, {"measurement": "EC50", "setting": "[8]", "result": 269, "unit": "nM"}, {"measurement": "EC50", "setting": "[9]; read-out: pEC50 (converted)", "result": 39.8, "unit": "nM"}, {"measurement": "EC50", "setting": "[10]", "result": 158, "unit": "nM"}]}
{"smiles": "COc1ccccc1OCCNC[C@H](O)c1cccc2[nH]c3ccccc3c12", "values": [{"measurement": "Ki", "setting": "[1]", "result": 6.6, "unit": "nM"}, {"measurement": "Ki", "setting": "[2]", "result": 3.3, "unit": "nM"}]}
{"smiles": "COc1ccccc1OCCNC[C@H](O)COc1ccc(O)c(O)c1", "values": [{"measurement": "EC50", "setting": "[3]", "result": 398, "unit": "nM"}, {"measurement": "EC50", "setting": "[4]", "result": 398, "unit": "nM"}, {"measurement": "EC50", "setting": "[5]", "result": 12600, "unit": "nM"}, {"measurement": "EC50", "setting": "[6]", "result": 631, "unit": "nM"}, {"measurement": "EC50", "setting": "[7]", "result": 316, "unit": "nM"}, {"measurement": "Ki", "setting": "[1]", "result": 12, "unit": "nM"}, {"measurement": "EC50", "setting": "[9]; read-out: EC50", "result": "300 to 800", "unit": "nM"}, {"measurement": "EC50", "setting": "[9]; read-out: pEC50 (converted)", "result": 794, "unit": "nM"}, {"measurement": "Ki", "setting": "[2]", "result": 21, "unit": "nM"}, {"measurement": "EC50", "setting": "[10]", "result": 794, "unit": "nM"}]}
{"smiles": "COc1ccccc1OCCNC[C@@H](O)Cc1ccc(O)c(O)c1", "values": [{"measurement": "Ki", "setting": "[1]", "result": 2400, "unit": "nM"}, {"measurement": "Ki", "setting": "[2]", "result": 740, "unit": "nM"}]}
{"smiles": "COc1cc(CCNC[C@@H](O)COc2ccc(O)c(O)c2)ccc1OCCCc1ccccc1", "values": [{"measurement": "Ki", "setting": "[1]", "result": 310, "unit": "nM"}, {"measurement": "Ki", "setting": "[2]", "result": 120, "unit": "nM"}]}
{"smiles": "OCc1cc(C(O)CNCCCCCCOCCCCc2ccccc2)ccc1O", "note": "(racemic) [SALMETEROL]", "values": [{"measurement": "Ki", "setting": "[1]", "result": 550, "unit": "nM"}]}
{"smiles": "COc1ccccc1OCCNC[C@@H](O)c1cccc2[nH]c3ccccc3c12", "values": [{"measurement": "Ki", "setting": "[1]", "result": 340, "unit": "nM"}, {"measurement": "Ki", "setting": "[2]", "result": 170, "unit": "nM"}]}
{"smiles": "CC(C)NCCCOc1ccc(O)c(O)c1", "values": [{"measurement": "Ki", "setting": "[1]", "result": "> 10000", "unit": "nM"}, {"measurement": "Ki", "setting": "[2]", "result": 6900, "unit": "nM"}]}
{"smiles": "COc1ccccc1OCCNCCc1cccc2[nH]c3ccccc3c12", "values": [{"measurement": "Ki", "setting": "[1]", "result": 330, "unit": "nM"}, {"measurement": "Ki", "setting": "[2]", "result": 26, "unit": "nM"}]}
{"smiles": "COc1ccccc1OCCNCCCc1ccc(O)c(O)c1", "values": [{"measurement": "Ki", "setting": "[1]", "result": "> 10000", "unit": "nM"}, {"measurement": "Ki", "setting": "[2]", "result": 920, "unit": "nM"}]}
